TGI and GI50 data for 14 compounds are collected here from PubChem BioAssay (NCI).

“And” between values parts separate entries of the source, which are not always exact repeats. Equal entries are not always repeated.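 48-hour exposure; five concentrations; linearly interpolated endpoints. The concentration for 50% growth inhibition is given as GI50. TGI denotes the concentration required for complete inhibition of growth.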 Where a SMILES comes first, the peptide text is derived from it. [ ]: non-standard residue; d: D form. The star is where a group is joined. ξ: configuration not given here. ξPhe(4-NO2) = NC(Cc1ccc([N+](=O)[O-])cc1)C(=O)O; Boc = CC(C)(C)OC(=O)* A value given as a limit tells only on which side of the number the result lay.

Common to all, as to assay: NCI tumour cell line growth inhibition, 48 h
Experiment [1] deals with A549 NSCLC.
Experiment [2] relates to CAKI-1 renal.
In experiment [3] the test system is HT29 colon.
In experiment [4] the test system is IGROV1 ovarian.
Experiment [5] has as its system MALME-3M melanoma.
The subject of experiment [6] is MDA-MB-435.
The subject of experiment [7] is OVCAR-3 ovarian.
For experiment [8], the system named is SK-MEL-2 melanoma.
The subject of experiment [9] is SN12C renal.
Experiment [10] has as its system U251 CNS.
The test system of experiment [11] is BT-549 breast.

Turning to `CCOC1=NC(C(F)(F)F)(C(F)(F)F)N=C(N2CCCCC2)O1`, the TGI in [1], in experiment [2], in [3], in experiment [4], in experiment [5] and in experiment [6] was greater than 100 µM in each case. The TGI in experiment [7], in [8], in [9] and in [10] was greater than 100 µM each time.

Consider `CCN(CCCl)c1cc(CN(C)C)cc(NC(=O)c2ccc(C(=O)Nc3ccccc3)cc2)c1`, for which the TGI stood at 11.9 µM in [1]; 3.69 µM in [2]; 0.414 µM in experiment [3]; 0.448 µM in experiment [4]; 0.425 µM in [5]; 0.613 µM in experiment [6]. The TGI turned out to be 0.519 µM in experiment [8] and 5.21 µM in experiment [9].

For `CCNC(=O)CNC(=O)C(Cc1ccc([N+](=O)[O-])cc1)NC(=O)OC(C)(C)C` (stereo not given) (Boc-[ξPhe(4-NO2)]-Gly-NHEt), the TGI in experiment [1], in experiment [11], in experiment [2], in [3], in [4] and in experiment [5] was greater than 100 µM in each case. The TGI in experiment [6], in experiment [7], in experiment [9] and in experiment [10] was greater than 100 µM in each case.

On to `COc1cc2c3c(c1OC)C(=O)C(=O)C1=C3N(CCC1)CC2`, for which the TGI in experiment [1] is greater than 100 µM; in [11], 72.6 µM; in experiment [2] it was greater than 100 µM; in experiment [3], greater than 100 µM; in experiment [4] it was greater than 100 µM; in [6], 53.8 µM. The TGI was 73.3 µM in [7], greater than 100 µM in [8], greater than 100 µM in [9] and greater than 100 µM in experiment [10].

As for `CCNC1=C(NC(=O)CCl)C(=O)c2ccccc2C1=O`, the TGI in [1] is 99.6 µM; in experiment [11], greater than 10 µM; in [3], greater than 10 µM; in experiment [4], greater than 10 µM; in [5], 34.9 µM; in experiment [6], 36.4 µM. For the same compound, the values for the TGI in [7], in [9] and in [10] were 31.5 µM, 32.8 µM and 35.9 µM, respectively.

On to `CCOC(OCC)[C@H](N)[C@@H](O)[C@@H](O)[C@H]1COC(C)(C)O1`, for which the TGI in experiment [1], in [3], in [4], in [5], in [6] and in experiment [7] was greater than 100 µM each time. For the same compound, the TGI in experiment [8], in [9] and in experiment [10] was greater than 100 µM in each case.

For `CO/N=C(\C(=O)[N-][n+]1cnn(CC(=O)O)c1)c1csc(N)n1`, the TGI in [1], in experiment [11], in [2], in experiment [3], in [4] and in experiment [9] was greater than 10 µM each time.

`O=C(N[C@@H](Cc1ccccc1)B(O)O)[C@H](Cc1cccc2ccccc12)NC(=O)N1CCOCC1`: the GI50 was 0.0123 µM in [1] and 0.0228 µM in experiment [2]. Also, the TGI in experiment [1] is 0.47 µM; in [11] it was 0.00335 µM; in experiment [2], 0.048 µM and 0.18 µM; in experiment [3], 0.0105 µM and 0.0106 µM; in [4], 0.07 µM and 0.0754 µM; in [5], 0.0103 µM and 0.0226 µM. For the same compound, the TGI in [6] is 0.00103 µM; in experiment [7] it was 0.00255 µM and 0.0196 µM; in [9], 0.0226 µM and 0.0268 µM; in [10], 0.132 µM and 0.174 µM.

For `COc1ccc2c(c1)OC1c3ccccc3OCC21` (stereo not given), the TGI in experiment [11] is greater than 100 µM; in [2], greater than 100 µM; in experiment [3], 93.9 µM; in experiment [4], greater than 100 µM; in experiment [6], greater than 100 µM; in experiment [7] it was greater than 100 µM. Further, the TGI in experiment [8], in [9] and in experiment [10] was greater than 100 µM in each case.

With `CC1=CC(=O)/C(=C/N2C(=O)CNC2=S)C(=O)O1`, the TGI in experiment [1], in experiment [2], in [3], in [4], in experiment [6] and in experiment [7] was greater than 100 µM in each case. Moreover, the TGI in [8], in experiment [9] and in experiment [10] was greater than 100 µM each time.

Consider `CCOc1cc(/C=C2\N=C(c3ccccc3)N(c3nc4ccccc4s3)C2=O)ccc1O`, for which the TGI in experiment [2] was greater than 100 µM; in experiment [3], greater than 100 µM; in experiment [4], greater than 100 µM; in experiment [6], greater than 100 µM; in experiment [7] it was greater than 100 µM; in experiment [8] it was 62.1 µM. Moreover, the TGI in [10] is greater than 100 µM.

Regarding `NS(=O)(=O)c1ccc(N2C(=O)C(=O)N(c3ccccc3)C2=S)cc1`, the TGI in experiment [1], in experiment [2], in [3], in [4], in [5] and in experiment [6] was greater than 100 µM throughout. Also, the TGI in [8], in experiment [9] and in experiment [10] was greater than 100 µM throughout.

As to `C#CCOC(=O)[C@@H](C)c1ccc2cc(OC)ccc2c1`, the TGI in experiment [11], in experiment [2], in experiment [4], in experiment [6], in experiment [8] and in experiment [9] was greater than 100 µM each time. The same compound had a TGI in experiment [10] greater than 100 µM.

Turning to `COc1ccc(S(=O)(=O)Nc2ccc(-c3csc(N4C(=O)/C(=C/c5cccs5)N=C4c4ccccc4)n3)cc2)cc1Cl`, the TGI in experiment [1] is greater than 100 µM; in experiment [2], greater than 100 µM; in [3], greater than 100 µM; in experiment [4] it was greater than 100 µM; in [5], 90.5 µM; in experiment [6] it was greater than 100 µM. Also, the TGI in [7], in experiment [8], in experiment [9] and in [10] was greater than 100 µM in each case.
